Source: patent US11566062B2, “Methods for modulating protein mannosylation profiles using maduramycin, narasin, or salinomycin” (ARES TRADING S.A., priority 2017, dated 2023)
Entries after “also recorded” stand apart in the source; their conditions may differ.

Experiments:
Assay type in all cases: cell-based, Chinese hamster
mAb1 cells [1] = test: Toxicity of the polyether ionophores: viable cell density (ViCell) in fed-batch SpinTubes culture; settings: all concentrations tested (100, 250, 500 and 1000 nM; as low as 100 nM), vs control
Protocol: (§1) Cells expressing mAb1 and mAb2 were inoculated at 0.2×10^6 cells per millilitre (mL).
(§2) All assays were performed in fed-batch culture. A serum-free chemically defined culture medium was used. It was used as it is, or it was supplemented with polyether ionophore compounds (maduramycin, narasin, salinomycin and lasalocid were all purchased from Sigma-Aldrich) at the desired concentrations. The culture medium was fed, on a regular basis, with a chemically defined feed medium, as well as with glucose in order to keep said glucose level in the range of >0 to about 8 g/L (feeds were done at days 3, 5, 7, 10 and additional glucose feed at day 12).
For example 1, cultures were performed in SpinTubes® with a working volume of 30 mL. They were incubated at 36.5° C., 5% de CO2, 80% humidity and shaken at 320 rpm. Salinomycin, narasin and maduramycin were tested at 100, 250, 500 and 1000 nM.
(§3) Each of the fed-batch culture lasted 14 days.
(§4) Viable cell density and viability were measured with the ViCell® (Beckmann Coulter). Antibody titers were measured with PA-HPLC.
The cells were cultivated and the results analysed as disclosed in the material and method section. It is noted that the controls (or control conditions) according to the present invention correspond to cells grown without any polyether ionophores.

mAb1 cells [2] = test: Viable cell density and viability (ViCell) of mAb1 cells, fed-batch Ambr15; settings: 5 and 10 nM added at the start of the culture
Protocol: as §1, §2
(§5) For examples 2 and 3, cultures were performed in Ambr®15 with a working volume of 14 mL (36.5° C., Dissolved Oxygen 40%, 0.1 ml/min N2, pH range: 6.75-7.15, 800 rpm). A temperature shift was performed at day 6 for the cells expressing mAb1. Further conditions are mentioned in Table 2.
as §3, §4
(§6) The cells were cultivated and the results analysed as disclosed in the material and method section.

mAb1 cells [3] = test: Antibody titre (PA-HPLC) of mAb1 cells, fed-batch Ambr15; settings: 5 and 10 nM added at the start of the culture
Protocol: as §1, §2, §5, §3, §4, §6

[4] = tested on: mannosylation level of mAb1; test: Glycosylation (mannosylation) profile of mAb1 by 2AB-UPLC; set-up: level of ManS species / level of Man6 species (M6) / level of Man7 species / level of Man8 species / level of Man9 species: dose or concentration left out as unconfirmed; settings: for total mannosylation: 10 nM added at the start; for level of Man6 species (M6) / level of Man7 species / level of Man8 species / level of Man9 species / level of ManS species: day 12, added at the start of the culture
Protocol: as §2, §5
(§7) Glycosylation profiles were established either by Ultra Performance Liquid Chromatography-2-amino-benzamide labelling technique (2AB-UPLC; mAb1) or by mass spectroscopy (MS; mAB2). Groups of glycans were defined in Table 1.
as §6

mAb2 cells [5] = test: Viable cell density (ViCell) of mAb2 cells, fed-batch Ambr15
Protocol: as §1, §2, §5, §3, §4, §6

mAb2 cells [6] = test: Titre (PA-HPLC) of mAb2 cells, fed-batch Ambr15
Protocol: as §1, §2, §5, §3, §4, §6

[7] = tested on: mannosylation level of mAb2; test: Glycosylation (mannosylation) profile of mAb2 by mass spectroscopy; settings: for total mannosylation: 10 nM added at the start; for impact on afucoslyated glycoforms: data non shown; for level of Man5 species / level of Man6 species (M6) / level of Man7 species: day 10, 10 nM added at the start of the culture; for level of fucosylated glycoforms: not shown
Protocol: as §2, §5, §7, §6

[8] = 10 nM added at the start of the culture

CC[C@@H](C(=O)O)[C@@H]1O[C@@H]([C@@H](C)[C@H](O)[C@H](C)C(=O)[C@H](CC)[C@H]2O[C@]3(C=C[C@@H](O)[C@]4(CC[C@@](C)([C@H]5CC[C@](O)(CC)[C@H](C)O5)O4)O3)[C@H](C)C[C@@H]2C)[C@@H](C)C[C@@H]1C [narasin, Narasin]
VCD decreased by a factor (mAb1 cells [1]): 3
cell growth (VCD) at the end of culture compared to the control (mAb1 cells [2]): −15%
protein titre at the end of culture compared to the control (mAb1 cells [3]): −15%
total mannosylation ([4]; after 12 days of culture): about 43%
total mannosylation ([4]; after 14 days of culture): 38.9%
level of Man6 species (M6) [4]: about 6.5%
level of Man7 species [4]: about 4.5%
level of Man8 species [4]: about 3.5%
level of Man9 species [4]: about 0.5%
level of ManS species [4]: about 32%
impact on cell growth (mAb2 cells [5]; both concentrations (5 and 10 nM) added at the start of the culture): negative impact on cell growth
titre compared to the control (mAb2 cells [6]; 5 nM added at the start of the culture): +10%
titre compared to the control (mAb2 cells [6]; [8]): +15%
total mannosylation ([7]; after 10 days of culture): about 12.0%
total mannosylation ([7]; after 12 days of culture): 18.0%
impact on afucoslyated glycoforms [7]: without deeply impacting afucoslyated glycoforms
level of Man5 species [7]: about 16.5%
level of Man6 species (M6) [7]: about 3%
level of Man7 species [7]: about 1.0%
level of fucosylated glycoforms [7]: decreased

CC[C@@H](C(=O)[C@@H](C)[C@@H](O)[C@H](C)[C@@H]1O[C@@H]([C@@H](CC)C(=O)O)CC[C@@H]1C)[C@H]1O[C@]2(C=C[C@@H](O)[C@]3(CC[C@@](C)([C@H]4CC[C@](O)(CC)[C@H](C)O4)O3)O2)[C@H](C)C[C@@H]1C [salinomycin, Salinomycin]
VCD decreased by a factor (mAb1 cells [1]): 3
cell growth (VCD) at the end of culture compared to the control (mAb1 cells [2]): −13%
protein titre at the end of culture compared to the control (mAb1 cells [3]): −15%
level of Man6 species (M6) [4]: about 3.2%
level of Man7 species [4]: about 1.5%
level of Man8 species [4]: about 0.3%
level of Man9 species [4]: about 0.45%
level of ManS species [4]: about 27%
cell growth compared to the control at the end of culture (mAb2 cells [5]; [8]): not more than 10%
impact on afucoslyated glycoforms [7]: without deeply impacting afucoslyated glycoforms
level of Man5 species [7]: about 15%
level of Man6 species (M6) [7]: about 2.5%
level of Man7 species [7]: about 0.65%
level of fucosylated glycoforms [7]: decreased

Lasalocid
effect on mannosylation ([4]; concentration not given): no effect on mannosylation; also recorded: no impact on mannosylation
